Read-outs that look alike come from different tables or passages of the source.
How the values were obtained:
[1] = target: MST1 (Homo sapiens (Human), UniProt Q13043); experiment: In vitro enzyme activity test (ADP-GLO); format: biochemical
Experimental: The IC50 values of the compounds against MST1 were determined. The protein kinase MST1 and the substrate were obtained from commercial sources.
5.4 μL of protein kinase MST1 diluted to a certain concentration (final concentration was 2.5 ng/μL) and 1 μL of serially diluted drug compounds and control compound XMU-MP-1 were taken to react at room temperature for 10 minutes (final drug concentrations were 10 μM, 1 μM, 0.3 μM, 0.1 μM, 0.03 μM, 0.01 μM, 0.003 μM, 0.001 μM, respectively).
6 μL of a mixture of ATP (with a final reaction concentration of 50 μM) and substrate was added to the above reaction tube to react at 37° C. for 1 hour. The reaction buffer was 40 mM Tris, 7.5; 20 mM MgCl2; 0.1 mg/ml BSA; 50 μM DTT.
5 μL of the kinase mixture after the reaction was taken to a 384-well plate, and 5 μL of ADP-GLO™ reagent was added thereto. After reaction at room temperature for 40 minutes, the kinase reaction was terminated and the remaining ATP was consumed.
10 μL of a kinase detection reagent was added to convert ADP into ATP, and a coupled luciferase/luciferin reaction was utilized to detect the newly synthesized ATP. Envision was used to read and plot the data, and calculate the IC50 value.

[2] = test system: PDX1; experiment: Effect on insulin secretion transcription factor PDX1 in pancreatic β cells; format: cell-based, mouse; conditions: MIN-6 cells, 72 hours, 33.3 mM glucose
Experimental: (§1) The effects of compound 1 and the control compound XMU-MP-1 on MST1 signaling pathway such as autophosphorylation of MST1, apoptosis signaling pathway such as cleavage of four proteins Caspase9/7/3 and PARP, expression of BIM, BAX, BCL-2, BCL-XL protein, proliferation-related signaling pathway such as autophosphorylation of AKT and ERK, and phosphorylation and protein expression of insulin secretion transcription factor PDX1 were tested in mouse pancreatic β-cells, MIN-6 cells (Hunan Fenghuishengwu technology Co., Ltd.). Compound 1 of different concentrations (0 μM, 0.3 μM, 1 μM, 3 μM in DMSO) and XMU-MP-1 of 1 μM (in DMSO) were used to treat the cell line for 72 hours in a medium with a glucose content of 33.3 mM, respectively. One of the control DMSO group involved 5.5 mM glucose and the other one involved 33.3 mM glucose. The samples were collected.

[3] = test system: autophosphorylation of AKT and ERK; experiment: Effect on proliferation-related signaling pathway of pancreatic β cells; format: cell-based, mouse; conditions: MIN-6 cells, 72 hours, 33.3 mM glucose
Experimental: as §1

[4] = test system: autophosphorylation of MST1; experiment: Effect on MST1 signaling pathway of pancreatic β cells; format: cell-based, mouse; conditions: MIN-6 cells, 1 μM, 72 hours, 33.3 mM glucose
Experimental: as §1

[5] = test system: MIN-6 cells; experiment: Proliferation of MIN-6 cells (cell counter); conditions: 0.3-3 μM, 72 hours, as the drug concentration increases
Experimental: as §1
JIMBIO cell counter (EXCEL HERO TECHNOLOGY LIMITED) was used to detect the effect on the proliferation of MIN-6 cells after 72 hours of the administration.

[6] = test system: Caspase9/7/3, PARP, BIM, BCL-XL; experiment: Effect on apoptosis signaling pathway of pancreatic β cells; format: cell-based, mouse; conditions: MIN-6 cells, 1 μM, 72 hours, 33.3 mM glucose
Experimental: as §1

[7] = test system: C57BL/6 mice; experiment: Liver injury repair experiment (paracetamol/APAP-induced); format: in vivo
Experimental: C57BL/6 mice, male, 20 g, were maintained in a SPF animal room. Thirty C57BL/6 mice were fasted for 12 hours overnight, and 5 mice of which were intraperitoneally injected with normal saline to act as a normal control group, and the other 25 mice were intraperitoneally injected with paracetamol (APAP) (purchased from Sigma)-600 mg/kg, and randomly divided into 5 groups after 30 minutes, wherein the 5 groups include vehicle (5% DMSO in water), compound 1-1-po, compound 1-2-po, compound 1-4-po, XMU-MP-1-ip groups. Mice in the vehicle group were administered intragastrically with vehicle control; mice in the compound 1-1-po, compound 1-2-po, compound 1-4-po groups were administered intragastrically with compound 1 at 1 mg/kg, 2 mg/kg or 4 mg/kg, respectively; mice in the XMU-MP-1-ip group were intraperitoneally administered with the control compound XMU-MP-1 at 1 mg/kg. After the administration, the body weight of the mice was monitored and the survival status of the mice was observed.

[8] = read-out: MST1 (IC50/μM), ATP 50 μM, 37° C. 1 hour
[9] = ATP 50 μM, 37° C. 1 hour, read-out: MST1 (IC50/μM)

Chain of MST1 (Q13043 whole entry): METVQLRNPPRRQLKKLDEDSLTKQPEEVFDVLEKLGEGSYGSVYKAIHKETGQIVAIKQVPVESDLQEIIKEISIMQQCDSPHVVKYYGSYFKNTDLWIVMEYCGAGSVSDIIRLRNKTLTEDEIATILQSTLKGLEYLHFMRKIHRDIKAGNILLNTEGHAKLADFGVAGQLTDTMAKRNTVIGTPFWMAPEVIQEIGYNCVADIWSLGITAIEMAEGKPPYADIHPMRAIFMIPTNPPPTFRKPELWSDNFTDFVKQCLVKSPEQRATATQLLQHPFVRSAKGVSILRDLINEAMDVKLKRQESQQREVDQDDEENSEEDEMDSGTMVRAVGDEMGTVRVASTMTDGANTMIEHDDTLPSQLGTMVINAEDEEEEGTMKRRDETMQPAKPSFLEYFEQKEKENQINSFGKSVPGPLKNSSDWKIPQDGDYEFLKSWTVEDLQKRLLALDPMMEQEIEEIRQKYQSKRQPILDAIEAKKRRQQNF

| IC50 [1, 8] | SMILES | IC50 [1, 9] | other results |
| --- | --- | --- | --- |
| 0.197 µM | CN1C(=O)[C@H](c2ccccc2)N(C)c2nc(Nc3ccc(S(N)(=O)=O)cc3)ncc21 [Compound 4, (S)-4-((5,8-dimethyl-6-oxo-7-phenyl-5,6,7,8-tetrahydropteridin-2-yl)amino)benzsulfamide] | – | – |
| – | CC(C)CC1C(=O)N(C)c2cnc(Nc3ccc(S(N)(=O)=O)cc3)nc2N1C (centres unmarked) [Compound 16, 4-((7-isobutyl-5,8-dimethyl-6-oxo-5,6,7,8-tetrahydropteridin-2-yl)amino)benzsulfamide] | 0.0767 µM | – |
| – | CN1C(=O)C2(CCC2)N(C)c2nc(Nc3ccc(S(N)(=O)=O)cc3)ncc21 [Compound 15, 4-((5′,8′-dimethyl-6′-oxo-5′,8′-dihydro-6′H-spiro[cyclobutan-1,7′-pteridin]-2′-yl)amino)benzsulfamide] | 0.141 µM | – |
| 0.143 µM | CN1C(=O)C(c2ccccc2)N(C)c2nc(Nc3ccc(S(=O)(=O)NC4CC4)cc3)ncc21 (centres unmarked) [Compound 6, N-cyclopropyl-4-((5,8-dimethyl-6-oxo-7-phenyl-5,6,7,8-tetrahydropteridin-2-yl)amino)benzsulfamide] | – | – |
| 0.0227 µM | Cc1ccccc1C1C(=O)N(C)c2cnc(Nc3ccc(S(N)(=O)=O)cc3)nc2N1C (centres unmarked) [Compound 25, 4-((5,8-dimethyl-6-oxo-7-(o-methylphenyl)-5,6,7,8-tetrahydropteridin-2-yl)amino)benzsulfamide] | – | – |
| 0.0516 µM | CCNS(=O)(=O)c1ccc(Nc2ncc3c(n2)N(C)C(c2c(F)cccc2F)C(=O)N3C)cc1 (centres unmarked) [Compound 38, 4-((7-(2,6-difluorophenyl)-5,8-dimethyl-6-oxo-5,6,7,8-tetrahydropteridin-2-yl)amino)-N-ethylbenzsulfamide] | – | – |
| – | CN1C(=O)C(C2CC2)N(C)c2nc(Nc3ccc(S(N)(=O)=O)cc3)ncc21 (centres unmarked) [Compound 19, 4-((7-cyclopropyl-5,8-dimethyl-6-oxo-5,6,7,8-tetrahydropteridin-2-yl)amino)benzsulfamide] | 0.137 µM | – |
| – | CN1C(=O)C(c2ccccc2C(F)(F)F)N(C)c2nc(Nc3ccc(S(N)(=O)=O)cc3)ncc21 (centres unmarked) [Compound 22, 4-((5,8-dimethyl-6-oxo-7-(2-(trifluoromethyl)phenyl)-5,6,7,8-tetrahydropteridin-2-yl)amino)benzsulfamide] | 0.0563 µM | – |
| 0.113 µM | CN1C(=O)C(c2c(F)cccc2F)N(C)c2nc(Nc3ccc(S(=O)(=O)NC4CC4)cc3)ncc21 (centres unmarked) [Compound 27, N-cyclopropyl-4-((7-(2,6-difluorophenyl)-5,8-dimethyl-6-oxo-5,6,7,8-tetrahydropteridin-2-yl)amino)benzsulfamide] | – | – |
| – | CCCC1C(=O)N(C)c2cnc(Nc3ccc(S(N)(=O)=O)cc3)nc2N1C (centres unmarked) [Compound 17, 4-((5,8-dimethyl-6-oxo-7-propyl-5,6,7,8-tetrahydropteridin-2-yl)amino)benzsulfamide] | 0.206 µM | – |
| 0.0316 µM | CN1C(=O)C(c2c(F)cccc2F)N(C)c2nc(Nc3ccc(S(=O)(=O)N(C)C4CC4)cc3)ncc21 (centres unmarked) [Compound 32, N-cyclopropyl-4-((7-(2,6-difluorophenyl)-5,8-dimethyl-6-oxo-5,6,7,8-tetrahydropteridin-2-yl)amino)-N-methylbenzsulfamide] | – | – |
| – | CN1C(=O)C2(CCCC2)N(C)c2nc(Nc3ccc(S(N)(=O)=O)cc3)ncc21 [Compound 14, 4-((5′,8′-dimethyl-6′-oxo-5′,8′-dihydro-6′H-spiro[cyclopentan-1,7′-pteridin]-2′-yl)amino)benzsulfamide] | 0.129 µM | – |
| 0.0987 µM | CN1C(=O)[C@@H](c2ccccc2)N(C)c2nc(Nc3ccc(S(N)(=O)=O)cc3)ncc21 [Compound 10, (R)-4-((5,8-dimethyl-6-oxo-7-phenyl-5,6,7,8-tetrahydropteridin-2-yl)amino)benzsulfamide] | – | – |
| – | CN1C(=O)C(c2cccc(F)c2)N(C)c2nc(Nc3ccc(S(N)(=O)=O)cc3)ncc21 (centres unmarked) [Compound 11, 4-((7-(3-fluorophenyl)-5,8-dimethyl-6-oxo-5,6,7,8-tetrahydropteridin-2-yl)amino)benzsulfamide] | 0.134 µM | – |
| – | CN1C(=O)C2(CC2)N(C)c2nc(Nc3ccc(S(N)(=O)=O)cc3)ncc21 [Compound 7, 4-((5′,8′-dimethyl-6′-oxo-5′,8′-dihydro-6′H-spiro[cyclopropan-1,7′-pteridin]-2′-yl)amino)benzsulfamide] | 0.103 µM | – |
| – | CN1C(=O)C(c2cccs2)N(C)c2nc(Nc3ccc(S(N)(=O)=O)cc3)ncc21 (centres unmarked) [Compound 20, 4-((5,8-dimethyl-6-oxo-7-(thien-2-yl)-5,6,7,8-tetrahydropteridin-2-yl)amino)benzsulfamide] | 0.0879 µM | – |
| – | CN1C(=O)C(c2ccccc2F)N(C)c2nc(Nc3ccc(S(N)(=O)=O)cc3)ncc21 (centres unmarked) [Compound 21, 4-((7-(2-fluorophenyl)-5,8-dimethyl-6-oxo-5,6,7,8-tetrahydropteridin-2-yl)amino)benzsulfamide] | 0.0753 µM | – |
| – | CN1C(=O)C(c2c(F)cccc2F)N(C)c2nc(Nc3ccc(S(=O)(=O)NCC4CC4)cc3)ncc21 (centres unmarked) [Compound 33, N-(cyclopropylmethyl)-4-((7-(2,6-difluorophenyl)-5,8-dimethyl-6-oxo-5,6,7,8-tetrahydropteridin-2-yl)amino)benzsulfamide] | 0.0796 µM | – |

| SMILES | IC50 [1, 8] | IC50 [1, 9] | other results |
| --- | --- | --- | --- |
| CN1C(=O)C(c2c(F)cccc2F)N(C)c2nc(Nc3ccc(S(N)(=O)=O)cc3)ncc21 (centres unmarked) [Compound 1, 4-((7-(2,6-difluorophenyl)-5,8-dimethyl-6-oxo-5,6,7,8-tetrahydropteridin-2-yl)amino)benzsulfamide] | 0.023 µM | – | expression of PDX1 [2]: promotes the expression of PDX1 to a certain extent; phosphorylation of the transcription factor PDX1 [2]: a certain inhibitory effect; AKT autophosphorylation [3]: does not affect; ERK autophosphorylation [3]: can activate; autophosphorylation of MST1 [4]: significantly inhibit; cell proliferation [5]: can promote cell proliferation; cleavage of the four proteins Caspase9/7/3 and PARP [6]: inhibit the cleavage; expression of pro-apoptosis-related proteins such as BIM [6]: down-regulate; expression of the anti-apoptotic protein BCL-XL [6]: promote the expression; survival rate of the mice ([7]; 1 mg/kg intragastrically after APAP 600 mg/kg ip): 80%; survival of the mice ([7]; 2 mg/kg intragastrically after APAP 600 mg/kg ip): all escaped from death; survival of the mice ([7]; 4 mg/kg intragastrically after APAP 600 mg/kg ip): all escaped from death; weight of mice ([7]; after APAP 600 mg/kg ip, compound 1 po 1-4 mg/kg, XMU-MP-1 ip 1 mg/kg): can gradually recover |
